Values joined by “and” are separate entries in the source; they are usually repeats but may differ in a detail not shown here. Identical values can stand only once. Like-named read-outs stand apart in the source and are kept apart here.
Columns and labels:
[1] = DPPH method, antioxidant capacity in methanolic medium (after Brand-Williams et al., 1995); type: biochemical; details: for TEAC (Trolox équivalent antioxidant capacity): DPPH, relative to Trolox; for capacité antioxydante: overall conclusion in words from DPPH and FRAP
Description: (§1) Pour comparaison ou pour l'expression des résultats, les capacités antioxydantes des composés suivants ont été également mesurées : vitamine C (acide ascorbique), Trolox (analogue hydrosoluble de la vitamine E), (-)-épicatéchine, et phloridzine.
Les résultats sont présentés dans les tableaux II et III ci dessous.

[2] = FRAP method (Ferric Reducing Antioxidant Power), aqueous medium, 10 min incubation (after Pulido et al., 2000); type: biochemical; details: for TEAC: FRAP, Trolox equivalent, (SD); for EC1: antioxidant concentration with reducing power equivalent to 1 mmol/L FeSO4 7 H2O, 10 min incubation, mean of 3 (SD)
Protocol: as §1
Tableau III - Mesure de la capacité antioxydante en milieu aqueux par la méthode FRAP pour 10 minutes d'incubation (d'après Pulido et al., 2000).

[3] = values of Pulido et al. (2000); cited from earlier work
[4] = sign only; other natural yellow colourants, source not given; cited from earlier work
[5] = Molar extinction coefficient (UV-visible); type: physicochemical
Description: Une solution à 20 ppm de ce composéest jaune intense.
Le spectre UV-visible d'une solution de préparation POP a été mesuré pour différents pH entre 2 et 8 (voir figure 1). Des mesures de couleur (chromamètre Minolta) ont également été réalisées dans cette zone de pH. Les résultats détaillés des paramètres colorimétriques sont consignés ci-après.

cellules TC-7 = test: Cytotoxicity test, cell viability by neutral red method; type: cell-based; details: for % Témoin / DO Moyenne: 2 h; for % Témoin: cell viability; for DO Moyenne: mean of 5
Protocol: Cellules TC-7 (sous clone de caco-2) cultivées sur nacelles (membrane en polyéthylène téréphtalate), utilisées à 21 jours de confluence, fournie par Bioprédic International
Emploi des cellules au passage 21.
Pas de solvant utilisé pour la solubilisation des produits à l'essai.
Système réactionnel : cultures de cellules TC-7 incubées en présence des produits à l'essai aux différentes concentrations citées ci-dessus.
Temps d'incubation : 2 heures. [drawing 6] ↑ : incubation des produits à l'essai ? : évaluation des effets Replicate : 5 par concentrations. Température d'incubation : 37°C. Autres conditions : atmosphère humide contenant 5 % de CO2.
Témoin : correspondant aux cellules incubées en absence de produit à l'essai [drawing 8] Replicate : 10
Viabilité cellulaire mesurée selon la méthode du rouge neutre après incubation avec les produits à l'essai : • incubation en présence de rouge neutre pendant 3 heures • lyse des cellules et lecture de la densité optique avec un spectrophotomètre à 540 nm (la densité optique du rouge neutre est proportionnelle au nombre de cellules vivantes).
Expression des résultats : en unités arbitraires de D.O.(densité optique) par échantillon et en pourcentage de variation par rapport au groupe témoin.

[6] = Optical density at 420 nm of the esterification reaction medium (colouring capacity); type: physicochemical; details: unpurified POP fraction incubated with acidified alcohol, 50 °C, 1 h
Description: Le volume d'alcool est ajusté de façon à avoir une concentration finale en fraction POP de 1 g.L^-1. Les alcools suivants ont été testés : méthanol, propanol-1, propanol-2, butanol-1, butanol-3, hexanol-1, octanol-1.
Confirmation de la conversion en esters : la formation des esters correspondant a été montrée par HPLC couplée à la spectrométrie de masse en mode négatif et avec également en série une détection à 420 nm (jaune). […] Tableau I: Temps de rétention chromatographique, ions pseudo-moléculaires et rendements de conversion du composé de formule I-b-1 et de ses dérivés estérifiés.

[7] = Colorimetric parameters CIE L*a*b* (Minolta CM-3600d spectrophotometer) in Mc Ilvaine buffer; type: physicochemical; design: key to L* : luminosité / a* : axe vert-rouge / b* : axe bleu-jaune: CIE L*a*b* coordinates (illuminant D65, 10° observer)
Description: Les paramètres de coloration du colorant par rapport à de l'eau distillée (référence) ont été mesurés en solution dans un tampon de M^c Ilvaine (citrate-phosphate) à différents pH (2,2 à 8) et ce, pour plusieurs concentrations.
Les mesures ont été réalisées à l'aide d'un spectrophotomètre Minolta CM-3600d (©1998 Minolta Co., Ltd. Japon) avec la plaque de calibration (Minolta n° 13171008). Le spectrophotomètre équipé d'un logiciel de retraitement SpectraMagic V 3.60G (Cyberchrome Inc Minolta Co. Ltd), a été paramétré pour utiliser l'espace colorimétrique CIE L*a*b (Figure 2), avec l'illuminant D65-10° (D65-A-F2), et l'observateur moyen normalisé 10° CIE 1964 (sensibilité d'un oeil moyen). A partir des valeurs a* et b* nous avons calculé les coordonnées polaires C* = sqrt(((a*))^2 + ((b*))^2) et h = tan g^-1 ((a*)/(b*)) × (180)/(Pi) [formula] Dans la suite du texte nous exploiterons principalement ces coordonnées polaires C* et h, car elles ont chacune une signification colorimétrique : C* est la distance au centre de l'espace et correspond à la saturation de la couleur alors que h est un angle (exprimé ici en degré) qui définit la teinte. A titre indicatif pour la couleur rouge la teinte se situe au voisinage de 0°, pour le jaune environ 90°, pour le vert 180° et pour le bleu 270°. La valeur L* est utilisée telle quelle et exprime la clarté.

[8] = 5 mg/L, pH 3, tampon de Mc Ilvaine
[9] = 10 mg/L, pH 3, tampon de Mc Ilvaine
[10] = 20 mg/L, pH 3, tampon de Mc Ilvaine
[11] = 40 mg/L, pH 3, tampon de Mc Ilvaine
[12] = 100 mg/L, pH 3, tampon de Mc Ilvaine
[13] = pH 2,2, env. 20 mg/L, tampon de Mc Ilvaine
[14] = pH 3, env. 20 mg/L, tampon de Mc Ilvaine
[15] = pH 4, env. 20 mg/L, tampon de Mc Ilvaine
[16] = pH 5, env. 20 mg/L, tampon de Mc Ilvaine
[17] = pH 6, env. 20 mg/L, tampon de Mc Ilvaine
[18] = pH 7, env. 20 mg/L, tampon de Mc Ilvaine
[19] = pH 8, env. 20 mg/L, tampon de Mc Ilvaine

For Oc1cc(O)c2c(c1)O[C@H](c1ccc(O)c(O)c1)[C@H](O)C2 [(-)-épicatéchine], the “TEAC (Trolox équivalent antioxidant capacity)” value [1] was 1,12, the TEAC [2] was 1.14 (0.03) and the EC1 [2] was 359 µmol/L and 359 (11) µmol/L. The EC1 [3] was 348.

For O=C(O)CCc1cc(O)c(O)cc1-c1c(O)cc(O)cc1C1O[C@H](CO)[C@@H](O)[C@H](O)[C@H]1O (stereo partly drawn) [I-a-1, acide 3-(4,5,4',6'-tetrahydroxy-2'-glucosyl-biphenyl-2-yl)-propionique], the “TEAC (Trolox équivalent antioxidant capacity)” value [1] was 0,78, the “capacité antioxydante, fold over phloridzine” value ([1]; overall conclusion from DPPH and FRAP) was 10 fois and the capacité antioxydante [1] was “capacité antioxydante importante”. The EC1 [2] was 477 (15) µmol/L.

With O=C(CCc1ccc(O)cc1)c1c(O)cc(O)cc1O[C@@H]1O[C@H](CO)[C@@H](O)[C@H](O)[C@H]1O [Phloridzine, phloridzine, reference compound] the “TEAC (Trolox équivalent antioxidant capacity)” value [1] was 0,09, the capacité antioxydante [1] was “très faible” and the TEAC [2] was 0.08 (0.00).

For Cc1c(C)c2c(c(C)c1O)CCC(C)(C(=O)O)O2 (stereo not drawn) [Trolox], the “TEAC (Trolox équivalent antioxidant capacity)” value [1] was 1,00, the TEAC [2] was 1.00 (0.02) and the EC1 [2] was 411 µmol/L and 411 (10) µmol/L. The EC1 [3] was 322.

For O=C1O[C@H]([C@@H](O)CO)C(O)=C1O [Vitamine C, acide ascorbique], the “TEAC (Trolox équivalent antioxidant capacity)” value [1] was 0,98, the TEAC [2] was 1.03 (0.02) and the EC1 [2] was 400 (9) µmol/L. The EC1 ([2]; listed as vitamine C) was 400 µmol/L and the EC1 [3] was 392.

For COc1cc(/C=C/C(=O)CC(=O)/C=C/c2ccc(O)c(OC)c2)ccc1O [curcumine], the “logP (P coeff. de partage [n-octanol/eau])” value [4] is given as “positif”.

In the case of O=c1c(O)c(-c2ccc(O)c(O)c2)oc2cc(O)cc(O)c12 [quercétine], the “logP (P coeff. de partage [n-octanol/eau])” value [4] is listed as “positif”.

With “acide 3-(4'-hydroxy-2'-glucosyl-4,5-dioxo-3,6-dihydro-2H-dibenzofuran-2-yl)-propionique [I-b-1]” the “coefficient d'extinction molaire” value ([5]; 420 nm à pH 3, estimated) was 17400 mol⁻¹ cm⁻¹, the “coefficient d'extinction molaire ε” value ([5]; pH 3) was 17 400 DO.mol^-1.L^-2.cm^-1 and the “% Témoin” value (cellules TC-7; 20 µM) was 101%. For the same compound, the “DO Moyenne” value (cellules TC-7; 20 µM) was 0,489, the “% Témoin” value (cellules TC-7; 100 µM) was 104% and the “DO Moyenne” value (cellules TC-7; 100 µM) was 0,504. The “% Témoin” value (cellules TC-7; 200 µM) was 96%, the “DO Moyenne” value (cellules TC-7; 200 µM) was 0,467 and the “effet sur la viabilité cellulaire” value (cellules TC-7; 1000 µM) was “une légère diminution de la viabilité cellulaire”. For the same compound, the “% Témoin” value (cellules TC-7; 1000 µM) was 104%, the “DO Moyenne” value (cellules TC-7; 1000 µM) was 0,504 and the “% Témoin” value (cellules TC-7; 2000 µM) was 93%. For the same compound, the “DO Moyenne” value (cellules TC-7; 2000 µM) was 0,448, the “effet sur la viabilité cellulaire” value (cellules TC-7; at the tested concentrations (20-2000 µM)) was “n'a pas eu d'effet sur la viabilité cellulaire” and the “effet sur la viabilité cellulaire” value (cellules TC-7; jusqu'à 200 µM) was “Aucun effet inhibiteur de référence n'a été noté”. For the same compound, the “TEAC (Trolox équivalent antioxidant capacity)” value [1] was 0,09, the capacité antioxydante [1] was “faible capacité antioxydante” and the “DO 420 nm (jaune) du milieu réactionnel dilué à 0,1 g/l” value [6] was 0,973. The “L* : luminosité” value [7, 8] was 99,6, the “Teinte CIE” value [7, 8] was 3,5 and the “a* : axe vert-rouge” value [7, 8] was -4,6. For the same compound, the “b* : axe bleu-jaune” value [7, 8] was 11,5, the “L* : luminosité” value [7, 9] was 99,3 and the “Teinte CIE” value [7, 9] was 6,7. The “a* : axe vert-rouge” value [7, 9] was -8,5, the “b* : axe bleu-jaune” value [7, 9] was 22,8 and the “L* : luminosité” value [7, 10] was 98,7. For the same compound, the “Teinte CIE” value [7, 10] was 11,1, the “a* : axe vert-rouge” value [7, 10] was -13,6 and the “b* : axe bleu-jaune” value [7, 10] was 41,5. The “L* : luminosité” value [7, 11] was 97,9, the “Teinte CIE” value [7, 11] was 14,3 and the “a* : axe vert-rouge” value [7, 11] was -17,7. For the same compound, the “b* : axe bleu-jaune” value [7, 11] was 67,1, the “L* : luminosité” value [7, 12] was 96,5 and the “Teinte CIE” value [7, 12] was 10,4. For the same compound, the “a* : axe vert-rouge” value [7, 12] was -17,8, the “b* : axe bleu-jaune” value [7, 12] was 96,0 and the “L* : luminosité” value [7, 13] was 98,7. For the same compound, the “Teinte CIE” value [7, 13] was 11,2, the “a* : axe vert-rouge” value [7, 13] was -13,5 and the “b* : axe bleu-jaune” value [7, 13] was 40,7. For the same compound, the “L* : luminosité” value [7, 14] was 98,5, the “Teinte CIE” value [7, 14] was 11,0 and the “a* : axe vert-rouge” value [7, 14] was -13,4. For the same compound, the “b* : axe bleu-jaune” value [7, 14] was 41,1, the “L* : luminosité” value [7, 15] was 98,4 and the “Teinte CIE” value [7, 15] was 10,2. The “a* : axe vert-rouge” value [7, 15] was -13,2, the “b* : axe bleu-jaune” value [7, 15] was 42,3 and the “L* : luminosité” value [7, 16] was 97,5. For the same compound, the “Teinte CIE” value [7, 16] was 5,9, the “a* : axe vert-rouge” value [7, 16] was -11,4 and the “b* : axe bleu-jaune” value [7, 16] was 46,7. The “L* : luminosité” value [7, 17] was 93,5, the “Teinte CIE” value [7, 17] was -20,5 and the “a* : axe vert-rouge” value [7, 17] was -0,1. The “b* : axe bleu-jaune” value [7, 17] was 57,7, the “L* : luminosité” value [7, 18] was 88,1 and the “Teinte CIE” value [7, 18] was -63,5. The “a* : axe vert-rouge” value [7, 18] was 16,3, the “b* : axe bleu-jaune” value [7, 18] was 71,4 and the “L* : luminosité” value [7, 19] was 87,1. The “Teinte CIE” value [7, 19] was -71,8, the “a* : axe vert-rouge” value [7, 19] was 19,5 and the “b* : axe bleu-jaune” value [7, 19] was 72,2. For the same compound, the “Teinte CIE” value ([7]; pH inférieur à 5-6 (yellow)) was 10 and the “Teinte CIE” value ([7]; pH supérieurs (orange)) was -50.
